In patent US5120870A, “Emulsion of lipid containing a prostaglandin analogue” (priority 1989, dated 1992):

How the values were obtained:
[1] = Storage stability of the emulsion (HPLC); assay type: physicochemical; settings: for Storage stability: Decomposition reaction rate constant: 40° C., calculated from change with time of remaining rate; for Storage stability: Remaining rate: emulsion stored 4 weeks at 40° C., 40320 min
Method: | Storage stability: | Stored for 4 weeks under a temperature condition of 40° C., and th | remaining rate (%) after the 4 weeks was measured. Further, from the | change with time of the remaining rate, the decomposition reaction rate | constant was calculated. The stability during the preparation and the remaining rate in the storage stability was measured by a separation quantitative analysis by means of high performance liquid chromatography, and the ratio of the measured amount relative to the amount at the initiation of the test was taken as the remaining rate.

[2] = system: platelet aggregation; test: Platelet aggregation inhibiting effect, ADP-induced, platelet rich plasma; assay type: cell-based; settings: 20 μM ADP, relative to physiological saline
Method: Further, the platelet aggregation inhibiting effects were measured as follows, and the results are shown also in Table 3.
Using sodium citrate (3.8%), peripheral blood was collected (blood 9, sodium citrate 1). This peripheral blood was subjected to centrifugal separation at 1000 rpm for 10 minutes to obtain a platelet rich plasma, and the rest was subjected to centrifugal separation at 3000 rpm for 20 minutes to obtain a plate poor plasma. To 225 μl of the platelet rich plasma, 50 μl of a test sample was added. One minute later, platelet aggregation was induced with 20 μMADP solution 25, whereupon the aggregation inhibitory rate (%) was calculated based on the aggregation rate when a physiological saline solution was added instead of the test sample, being rated as 100%.

[3] = Stability of the PG analogue during the preparation of the emulsion (HPLC); assay type: physicochemical; settings: lipid emulsion prepared at 90° C., final concentration 5 μg/ml
Method: To 500 μg of the PG analogue of the formula (2) of the present invention produced as described above, 10 g of purified soybean oil and 1.2 g of purified yolk lecitin were added, and the mixture was melted under heating at 90° C. by means of a homogenizer at 90° C. Then, 2.5 g of glycerol and 90 ml of distilled water for injection were added thereto, followed by rough emulsification by means of a homogenizer at […]. The product is then emulsified by means of a manton gaulin type homogenizer to obtain an emulsion having a final concentration of 5 μg/ml.
The stability of the PG analogue of the present invention during the preparation of the emulsion and the storage stability of the emulsion were measured, and the results are shown in Table 3.
The stability during the preparation and the remaining rate in the storage stability was measured by a separation quantitative analysis by means of high performance liquid chromatography, and the ratio of the measured amount relative to the amount at the initiation of the test was taken as the remaining rate.

[4] = system: human platelet aggregation; settings: Table 1(b), activity of PGE1 rated 100, cited from earlier work; for Inhibitory effects against human platelet aggregation (relative activity): (no incubation stated)
[5] = 1.6% BSA-saline solution, mean ± SE, n = 4-7, cited from earlier work

| SMILES | Storage stability: Decomposition reaction rate constant [1] | Storage stability: Remaining rate [1] | Platelet aggregation inhibitory effects [2] | Stability during the preparation [3] | Inhibitory effects against human platelet aggregation (relative activity) [4] | Inhibitory effects against human platelet aggregation (relative activity), after incubating in human serum for 20 min [4] | % of PGE1 (or ester) liberated from LM, 1 min incubation [5] | % of PGE1 (or ester) liberated from LM, 10 min incubation [5] |
| --- | --- | --- | --- | --- | --- | --- | --- | --- |
| CCCCOC(=O)CCCCCCC1=C(OC(C)=O)C[C@@H](O)[C@@H]1/C=C/[C@@H](O)C[C@@H](C)CCCC [Example 1, butyl 9-actoxy-11α,15S-dihyroxy-17S,20-dimethylprosta-8-13E-diene-1-oate] | 6.20 d^-1 × 10^3 | 84.8% | 37% | 75.6% | – | – | – | – |
| CCCCC[C@H](O)/C=C/[C@@H]1C(CCCCCCC(=O)OC)=C(OC(C)=O)C[C@H]1O [Example 2, methyl 9-acetoxy-11α,15S-dihydroxyprosta-9,13E-diene-1-oate] | 11.8 d^-1 × 10^3 | 72.7% | 100% | 70.4% | – | – | – | – |
| CCCCC[C@H](O)/C=C/[C@@H]1C(CCCCCCC(=O)OCCCC)=C(OC(C)=O)C[C@H]1O [Example 3, butyl 9-acetoxy-11α,15S-dihydroxyprosta-8,13E-diene-1-oate] | 8.30 d^-1 × 10^3 | 80.1% | 93% | 72.1% | – | – | – | – |
| CCCC[C@H](C)C[C@H](O)/C=C/[C@@H]1C(CCCCCCC(=O)OC)=C(OC(C)=O)C[C@H]1O [Example 4, methyl 9-acetoxy-11α,15S-dihyroxy-17S,20-dimethylprosta-8,13E-diene-1-oate] | 8.87 d^-1 × 10^3 | 77.9% | 44% | 68.3% | – | – | – | – |
| CCCCC[C@H](O)/C=C/[C@H]1[C@H](O)CC(=O)[C@@H]1CCCCCCC(=O)OCCCC [PGE1 butyl ester] | – | – | – | – | 29 | 89 | 60.5 ± 4.0% | 65.3 ± 5.6% |
| CCCCC[C@H](O)/C=C/[C@H]1[C@H](O)CC(=O)[C@@H]1CCCCCCC(=O)OCC [PGE1 ethyl ester] | – | – | – | – | 20 | 28 | 82.0 ± 8.8% | 125.4 ± 11.7% |
| CCCCC[C@H](O)/C=C/[C@H]1[C@H](O)CC(=O)[C@@H]1CCCCCCC(=O)OC [PGE1 methyl ester] | – | – | – | – | 23 | 51 | 82.5 ± 3.8% | 80.4 ± 2.9% |
| CCCCCCCCOC(=O)CCCCCC[C@H]1C(=O)C[C@@H](O)[C@@H]1/C=C/[C@@H](O)CCCCC [PGE1 octyl ester] | – | – | – | – | – | 4 | – | – |
| CCCCC[C@H](O)/C=C/[C@H]1[C@H](O)CC(=O)[C@@H]1CCCCCCC(=O)O [PGE1] | 113 d^-1 × 10^3 | 4.6% | 55% | 43.9% | – | – | – | – |
